Reference: the supplement of paper PMC10307832

Experiments:
Test in all cases: relative viability (nuclei count vs DMSO), 5 days (fraction); higher = more cells survive
[1] = compound: C=C(c1ccc(C(=O)O)cc1)c1cc2c(cc1C)C(C)(C)CCC2(C)C [Bexarotene]
How it was run: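 Viability here means nuclei in treated wells divided by nuclei in vehicle wells, reported as the median across plates. Only plates with control CV below 25% and at least one doubling passed. Lung cancer cell lines in 1536-well plates were exposed to five √10-spaced library-drug doses for 5 days and counted from 4× Hoechst images in MetaXpress.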

[2] = compound: C=C(c1ccc(C(=O)O)cc1)c1cc2c(cc1C)C(C)(C)CCC2(C)C [Bexarotene] + CC1(C)CCC(c2ccc(Cl)cc2)=C(CN2CCN(c3ccc(C(=O)NS(=O)(=O)c4ccc(N[C@H](CCN5CCOCC5)CSc5ccccc5)c(S(=O)(=O)C(F)(F)F)c4)cc3)CC2)C1 [Navitoclax] (partner 0.5 µM)
How it was run: (§1)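 Dosing by pin tool came one day after lung cancer cell lines were seeded in 1536-well plates, using either one drug or a fixed anchor-drug dose plus five library-drug doses (not always all listed) in √10 steps. After 5 days, nuclei were counted on 4× images. Relative viability is treated-well nuclei count divided by vehicle-well nuclei count, and values are medians of duplicate plates.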

[3] = compound: C=C(c1ccc(C(=O)O)cc1)c1cc2c(cc1C)C(C)(C)CCC2(C)C [Bexarotene] + Cc1cc(Nc2cc(N3CCN(C)CC3)nc(Sc3ccc(NC(=O)C4CC4)cc3)n2)n[nH]1 [Tozasertib] (partner 0.1 µM)
How it was run: as §1

[4] = compound: C=C(c1ccc(C(=O)O)cc1)c1cc2c(cc1C)C(C)(C)CCC2(C)C [Bexarotene] + N=C(N)NC(=N)NCCc1ccccc1 [Phenformin] (partner 250 µM)
How it was run: as §1

| Cell Line | relative viability ([1]; 0.08 µM) | relative viability ([1]; 0.253 µM) | relative viability ([1]; 0.8 µM) | relative viability ([1]; 2.53 µM) | relative viability ([1]; 8 µM) | relative viability ([2]; first compound 0.08 µM) | relative viability ([2]; first compound 0.253 µM) | relative viability ([2]; first compound 0.8 µM) | relative viability ([2]; first compound 2.53 µM) | relative viability ([2]; first compound 8 µM) | relative viability ([3]; first compound 0.08 µM) | relative viability ([3]; first compound 0.253 µM) | relative viability ([3]; first compound 0.8 µM) | relative viability ([3]; first compound 2.53 µM) | relative viability ([3]; first compound 8 µM) | relative viability ([4]; first compound 0.08 µM) | relative viability ([4]; first compound 0.253 µM) | relative viability ([4]; first compound 0.8 µM) | relative viability ([4]; first compound 2.53 µM) | relative viability ([4]; first compound 8 µM) |
| --- | --- | --- | --- | --- | --- | --- | --- | --- | --- | --- | --- | --- | --- | --- | --- | --- | --- | --- | --- | --- |
| NCI-H2228 | 1.02 | 1.24 | 1.03 | 0.819 | 0.947 | 0.822 | 0.71 | 0.455 | 0.931 | 0.721 | 0.241 | 0.262 | 0.226 | 0.205 | 0.229 | 0.31 | 0.372 | 0.276 | 0.264 | 0.3 |
| NCI-H2347 | 1.18 | 1.04 | 0.809 | 0.981 | 1.07 | 0.971 | 0.846 | 0.63 | 0.793 | 0.783 | 0.625 | 0.668 |  | 0.585 | 0.623 | 0.361 | 0.434 |  | 0.376 | 0.353 |
| NCI-H2405 | 1.12 | 1.01 | 0.857 | 0.97 | 0.986 | 0.999 | 0.814 | 0.753 | 0.926 | 0.786 | 0.786 | 0.752 | 0.54 | 0.759 | 0.715 | 0.448 | 0.443 | 0.296 | 0.408 | 0.36 |
| NCI-H3122 | 1.05 | 1.11 | 1.03 | 1.04 | 1.05 | 1.12 | 1.11 | 1.1 | 1.01 | 1.09 | 0.431 | 0.492 | 0.425 | 0.471 | 0.476 | 0.379 | 0.367 | 0.359 | 0.385 | 0.372 |
| PC-3 [JPC-3] | 1.14 | 0.98 | 0.918 | 0.964 | 0.932 | 0.86 | 0.904 | 0.754 | 0.797 | 0.693 | 0.905 | 0.889 | 0.758 | 0.862 | 0.755 | 0.489 | 0.514 | 0.448 | 0.52 | 0.505 |
| PC-14 | 1.05 | 1.17 | 0.973 | 0.92 | 0.896 | 1.12 | 1.11 | 0.948 | 0.841 | 0.809 | 0.626 | 0.778 | 0.649 | 0.576 | 0.66 | 0.611 | 0.61 | 0.523 | 0.435 | 0.522 |
| RERF-LC-KJ | 0.96 | 0.969 | 0.909 | 0.87 | 0.847 | 1.07 | 0.934 | 1.08 | 1 | 0.92 | 0.459 | 0.585 | 0.415 | 0.467 | 0.542 | 0.407 | 0.405 | 0.402 | 0.364 | 0.426 |
| SK-LU-1 | 1.2 | 1.13 |  | 1.04 | 0.936 | 1.1 | 0.845 |  | 0.645 | 1.09 | 0.284 | 0.346 |  | 0.358 | 0.321 | 0.633 | 0.667 |  | 0.417 | 0.387 |
| SK-MES-1 | 1.16 | 1.12 | 1 | 0.98 | 0.909 | 1.47 | 1.2 | 1.25 | 1.33 | 1.09 | 0.907 | 0.95 | 0.784 | 0.832 | 0.573 | 0.751 | 0.717 | 0.67 | 0.615 | 0.558 |
| SW 1573 | 1.04 | 0.976 | 0.921 | 0.84 | 0.771 | 1.07 | 0.777 | 0.731 | 0.735 | 0.598 | 0.219 | 0.171 | 0.251 | 0.162 | 0.224 | 0.374 | 0.328 | 0.332 | 0.273 | 0.297 |
| UMC-11 | 0.976 | 0.952 | 0.917 | 0.917 | 0.963 | 0.347 | 0.268 | 0.306 | 0.305 | 0.284 | 0.224 | 0.202 | 0.202 | 0.21 | 0.221 | 0.372 | 0.327 | 0.314 | 0.301 | 0.295 |
